From patent US20090018146A1, “Combination Therapy with Triterpenoid Compounds and Proteasome Inhibitors” (Research Development Corporation, priority 2005, published 2009)

Tests used:
his-ub-Hsp70 = experiment: In vivo ubiquitination of Hsp70 in his-ub transfected Jurkat cells; assay type: cell-based, human; settings: his-ub transfected Jurkat cells, avicin D 1 μM, 2 and 4 hours, p<0.05
Protocol: Jurkat T-cells were transfected with a plasmid pDG268 that expresses a fusion protein of histidine-tagged human ubiquitin and enhanced GFP. Transfection was performed using μm ax a Biosystems kit and their protocol. After 24 hours of transfection, cells were harvested, resuspended at a density of 10^6 cells/ml before treatment with lactacystin or avicin D.
Jurkat T cells transfected with the his-ub plasmid construct were treated with lactacystin (10 μM) or with avicin D (1 μM) for 4 hours. Cells were harvested and CE prepared as described above. […] The affinity purified histidine-tagged proteins were separated on SDS-PAGE and analyzed on western blots for ub-Hsp70 proteins.

XIAP [1] = experiment: Western blot of XIAP in primary PBL from Sezary syndrome patients; assay type: cell-based, human; settings: 5 μg/ml, 24 hours
Protocol: (§1) Jurkat T cells (2 μg/ml=1 μM), U-937 (4 μg/ml), MJ (5 μg/ml), and HH cells (2.5 μg/ml) were treated for 0-24 hours with the indicated concentrations of avicin D. PBLs from the patients or normal blood were treated with 5 μg/ml of avicin D for 24 hours.
(§2) At the end of treatments, cells were harvested, washed with sterile ice-cold PBS and cytoplasmic extracts (CE) were prepared by lysing the cells in CE buffer containing 10 mM Hepes-Cl pH 7.5, 10 mM KCl, 0.1 mM EDTA, 0.1 mM EGTA, 0.3% NP40, and a protease inhibitor cocktail (Sigma). After centrifugation and separating the supernatant (CE proteins), the pellet was resuspended in a buffer containing 20 mM Hepes-Cl, 400 mM NaCl, 1 mM EDTA, 1 mM EGTA, and protease inhibitor cocktail (Sigma). The nuclear protein extraction proceeded for 30 min. on ice followed by centrifugation at 14,000 rpm for 5 min at 4° C. The clear supernatant containing nuclear proteins (NE) was collected, glycerol (10%) was added, and proteins stored at −80° C. until use.
(§3) SDS-PAGE and immunoblot procedures were essentially performed as described (Sambrook, 1989). […] Protein bands were detected using the ECL chemiluminescence kit from Amersham as per the manufacturer's protocol.
(§4) Quantitation of proteins (western) and transcripts (RT-PCR) was performed using the NIH 1.61 image software.

20S proteasomal activity = molecular target: T1, 20S proteasomal activity (Homo sapiens, UniProt Q99436); experiment: 20S proteasomal assay in Jurkat cells; assay type: cell-based; settings: for decrease in the 20S proteasomal activity: avicin D 1 μM
T1 construct: Proteasomal extracts (PE) were prepared; endogenous in cells; host or cells: Jurkat T cells (proteasomal extracts)
T1 sequence (Q99436 44-277): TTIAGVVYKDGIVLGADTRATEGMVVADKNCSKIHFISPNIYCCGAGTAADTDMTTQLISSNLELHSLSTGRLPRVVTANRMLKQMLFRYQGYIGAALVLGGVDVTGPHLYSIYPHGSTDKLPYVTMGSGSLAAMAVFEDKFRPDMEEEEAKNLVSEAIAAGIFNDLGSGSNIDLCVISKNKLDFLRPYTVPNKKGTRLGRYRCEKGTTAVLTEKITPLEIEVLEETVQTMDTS
Protocol: Jurkat T cells were treated with 1 μM of avicin D for 0-4 hours. Proteasomal extracts (PE) were prepared as described previously (18) in a buffer containing 50 mM Hepes pH 8, 5 mM EGTA, 0.3% NP40, and 10% glycerol. The assay reaction contained 20 mM Tris-Cl pH7.2, 0.1 mM EDTA, 1 mM β-mercaptoethanol, 5 mM ATP, 20% glycerol, 0.02% SDS, and 0.04% NP40. About 10 μg of the PE proteins and BocLRR-AMC (0.1 mM), which allows measurement of the trypsin-like activity of proteasomes, was used as substrate. The reaction was carried out at 30° C. for 30 minutes and the fluorescence was read at 380 nm (excitation) and 460 nm (emission) in a Perkin Elmer HTS 7000 Plus, Bioassay Reader.
Statistical significance of differences observed in the proteasomal activity in avicin treated cells compared with the untreated cells was determined by using an unpaired Student t test. The minimum level of significance was a P<0.05.

XIAP [2] = experiment: Western blot of XIAP in normal PBL; assay type: cell-based, human; settings: PBL from a normal blood sample, 5 μg/ml, 24 hours
Protocol: as §1, §2, §3

XIAP [3] = experiment: Western blot of XIAP in leukemic/lymphoma cell-lines; assay type: cell-based, human; settings: Jurkat, U937, MJ-1, and HH cells, 24 hours post-treatment
Protocol: (§5) Human Jurkat T cell leukemia, monocytic U937 cells, and cutaneous T-cell lymphoma (CTCL) cell lines MJ (G11) and HH were obtained from American Type Culture Collection (Rockville, Md.) and grown in RPMI 1640 medium supplemented with 10% FBS and 2 mM glutamine.
as §1
as §2, with “The nuclear protein extraction proceeded for 30 min. on ice followed by centrifugation at 14,000 rpm for 5 min at 4° C. The clear supernatant containing nuclear proteins (NE) was collected, glycerol (10%) was added, and proteins stored at −80° C. until use.” left out
as §3, §4

[4] = test system: Hsp90α, Hsc70, and Hsp60 transcripts; experiment: One-step RT-PCR of Hsp90α, Hsc70 and Hsp60 transcripts in Jurkat cells; assay type: cell-based, human
Protocol: (§6) Total RNA purified using Trizol method (Invitrogen) was subjected to DNAseI (RNAase free, Sigma Chemical Co.) treatment to remove any residual DNA, followed by heat inactivation and addition of 1 mM EDTA. Absence of genomic DNA was confirmed by performing PCR using Taq DNA polymerase. About 50-100 ng of purified total RNA was used in a one-step RT-PCR reaction kit from Invitrogen in a Techne Genius machine. The samples were separated on 0.8% agarose-TBE gels and viewed by staining with ethidium bromide.
as §4

Hsp70α transcript = experiment: One-step RT-PCR of Hsp70α transcript in Jurkat cells; assay type: cell-based, human; settings: as early as 30 minutes
Protocol: as §6, §4

Hsp70 = experiment: Western blot of Hsp70 in leukemic/lymphoma cell-lines; assay type: cell-based, human; settings: Jurkat, U937, MJ-1, and HH cells, 24 hours post-treatment
Protocol: as §5, §1
as §2, with “The nuclear protein extraction proceeded for 30 min. on ice followed by centrifugation at 14,000 rpm for 5 min at 4° C. The clear supernatant containing nuclear proteins (NE) was collected, glycerol (10%) was added, and proteins stored at −80° C. until use.” left out
as §3, §4

Hsp90β transcript = experiment: One-step RT-PCR of Hsp90β transcript in Jurkat cells; assay type: cell-based, human; settings: as early as 30 minutes
Protocol: as §6, §4

caspase 9 = experiment: Western blot of caspase 9 cleavage in Jurkat cells; assay type: cell-based, human; settings: 2 hours of treatment
Protocol: as §1, §2, §3

C=C[C@](C)(O)CC/C=C(\CO)C(=O)O[C@H]1[C@H](O)[C@@H](O)[C@H](O[C@@](C)(C=C)CC/C=C(\CO)C(=O)O[C@H]2C[C@]3(C(=O)O[C@@H]4O[C@H](CO)[C@@H](O)[C@H](O)[C@H]4O[C@@H]4O[C@@H](C)[C@H](O[C@@H]5O[C@@H](CO)[C@H](O)[C@H]5O)[C@@H](O[C@@H]5O[C@H](CO)[C@@H](O)[C@H](O)[C@H]5O)[C@H]4O)[C@H](O)C[C@]4(C)C(=CC[C@@H]5[C@@]6(C)CC[C@H](O[C@@H]7O[C@H](CO[C@@H]8O[C@H](C)[C@H](O)[C@H](O)[C@H]8O[C@@H]8OC[C@@H](O)[C@H](O)[C@H]8O)[C@@H](O)[C@H](O)[C@H]7NC(C)=O)C(C)(C)[C@@H]6CC[C@]54C)[C@@H]3CC2(C)C)O[C@@H]1C [avicin D]
decrease in the levels of his-ub-Hsp70 protein band (his-ub-Hsp70): 40% | decrease in XIAP protein (XIAP [1]): 30-40% | decrease in the 20S proteasomal activity (20S proteasomal activity; 2 hours): 33% | decrease in the 20S proteasomal activity (20S proteasomal activity; 4 hours): 41% | decrease in proteasome activity (20S proteasomal activity; during 2-4 hours of treatment): 30-40% | change in XIAP protein (XIAP [2]): no significant change | XIAP protein level (XIAP [3]): significant decrease | changes in the transcripts encoding Hsp90α, Hsc70, and Hsp60 (RT-PCR) [4]: marginal | increase in the Hsp70α transcript (RT-PCR) (Hsp70α transcript): ~1.6 fold | Hsp70 protein level (Hsp70): significant decrease | increase in the Hsp90β transcript (RT-PCR) (Hsp90β transcript): ~1.4 fold | cleavage of caspase 9 (caspase 9): increased cleavage
